Data reported in PMC6946680, “Modulation of brain cation-Cl^− cotransport via the SPAK kinase inhibitor ZT-1a” (Nature Communications, 2020).

Assays:
Assay in all cases: Kinase profiling panel
Assay type in all cases: biochemical
[1] = system: Aurora B
Procedure: (§1) Supplementary Table 2. ZT-1a kinase profiling data6.
(§2) ZT-1a was tested at 10 and 1 µM against a panel of 140 recombinant kinases in an enzymatic
(§3) activity-based assay performed by the International Centre for Kinase Profiling in the MRC
(§4) Protein Phosphorylation and Ubiquitylation Unit. Values represent % residual kinase activity

[2] = system: BRSK1
Procedure: as §1, §2, §3, §4

[3] = system: BRSK2
Procedure: as §1, §2, §3, §4

[4] = system: BTK
Procedure: as §1, §2, §3, §4

[5] = system: CAMK1
Procedure: as §1, §2, §3, §4

[6] = system: CK2
Procedure: as §1, §2, §3, §4

[7] = system: DAPK1
Procedure: as §1, §2, §3, §4

[8] = system: EF2K
Procedure: as §1, §2, §3, §4

[9] = system: EPH-A2
Procedure: as §1, §2, §3, §4

[10] = system: EPH-A4
Procedure: as §1, §2, §3, §4

[11] = system: EPH-B1
Procedure: as §1, §2, §3, §4

[12] = system: EPH-B2
Procedure: as §1, §2, §3, §4

[13] = system: ERK2
Procedure: as §1, §2, §3, §4

[14] = system: ERK5
Procedure: as §1, §2, §3, §4

[15] = system: ERK8
Procedure: as §1, §2, §3, §4

[16] = system: HIPK1
Procedure: as §1, §2, §3, §4

[17] = system: IRAK1
Procedure: as §1, §2, §3, §4

[18] = system: JNK2
Procedure: as §1, §2, §3, §4

[19] = system: JNK3
Procedure: as §1, §2, §3, §4

[20] = system: MARK3
Procedure: as §1, §2, §3, §4

[21] = system: MELK
Procedure: as §1, §2, §3, §4

[22] = system: MKK6
Procedure: as §1, §2, §3, §4

[23] = system: MLK1
Procedure: as §1, §2, §3, §4

[24] = system: MNK1
Procedure: as §1, §2, §3, §4

[25] = system: NUAK1
Procedure: as §1, §2, §3, §4

[26] = system: OSR1
Procedure: as §1, §2, §3, §4

[27] = system: PAK6
Procedure: as §1, §2, §3, §4

[28] = system: PHK
Procedure: as §1, §2, §3, §4

[29] = system: PINK
Procedure: as §1, §2, §3, §4

[30] = system: PKA
Procedure: as §1, §2, §3, §4

[31] = system: PKBa
Procedure: as §1, §2, §3, §4

[32] = system: PKBb
Procedure: as §1, §2, §3, §4

[33] = system: PKCz
Procedure: as §1, §2, §3, §4

[34] = system: PLK1
Procedure: as §1, §2, §3, §4

[35] = system: PRAK
Procedure: as §1, §2, §3, §4

[36] = system: PRK2
Procedure: as §1, §2, §3, §4

[37] = system: RSK2
Procedure: as §1, §2, §3, §4

[38] = system: SRPK1
Procedure: as §1, §2, §3, §4

[39] = system: SYK
Procedure: as §1, §2, §3, §4

[40] = system: SmMLCK
Procedure: as §1, §2, §3, §4

[41] = system: Src
Procedure: as §1, §2, §3, §4

[42] = system: TrkA
Procedure: as §1, §2, §3, §4

[43] = system: VEG-FR
Procedure: as §1, §2, §3, §4

[44] = system: ZAP70
Procedure: as §1, §2, §3, §4

## Cc1cc(C(C#N)c2ccc(Cl)cc2)c(Cl)cc1NC(=O)c1cc(Cl)ccc1O (stereo not shown) [ZT-1a, 5-chloro-N-(5-chloro-4-((4-chlorophenyl)(cyano)methyl)-2-methylphenyl)-2-hydroxybenzamide]
[1]; 1 µM
  % residual kinase activity: 119±6%
[1]; 10 µM
  % residual kinase activity: 92±15%
[2]; 1 µM
  % residual kinase activity: 108±14%
[2]; 10 µM
  % residual kinase activity: 88±22%
[3]; 1 µM
  % residual kinase activity: 115±14%
[3]; 10 µM
  % residual kinase activity: 104±0%
[4]; 1 µM
  % residual kinase activity: 113±1%
[4]; 10 µM
  % residual kinase activity: 73±2%
[5]; 1 µM
  % residual kinase activity: 60±5%
[5]; 10 µM
  % residual kinase activity: 71±31%
[6]; 1 µM
  % residual kinase activity: 72±15%
[6]; 10 µM
  % residual kinase activity: 59±16%
[7]; 1 µM
  % residual kinase activity: 131±8%
[7]; 10 µM
  % residual kinase activity: 159±11%
[8]; 1 µM
  % residual kinase activity: 104±13%
[8]; 10 µM
  % residual kinase activity: 56±2%
[9]; 1 µM
  % residual kinase activity: 89±23%
[9]; 10 µM
  % residual kinase activity: 78±11%
[10]; 1 µM
  % residual kinase activity: 59±33%
[10]; 10 µM
  % residual kinase activity: 90±11%
[11]; 1 µM
  % residual kinase activity: 77±15%
[11]; 10 µM
  % residual kinase activity: 80±19%
[12]; 1 µM
  % residual kinase activity: 77±2%
[12]; 10 µM
  % residual kinase activity: 81±8%
[13]; 1 µM
  % residual kinase activity: 111±25%
[13]; 10 µM
  % residual kinase activity: 75±3%
[14]; 1 µM
  % residual kinase activity: 120±9%
[14]; 10 µM
  % residual kinase activity: 114±5%
[15]; 1 µM
  % residual kinase activity: 104±11%
[15]; 10 µM
  % residual kinase activity: 63±3%
[16]; 1 µM
  % residual kinase activity: 98±13%
[16]; 10 µM
  % residual kinase activity: 90±4%
[17]; 1 µM
  % residual kinase activity: 128±2%
[17]; 10 µM
  % residual kinase activity: 95±7%
[18]; 1 µM
  % residual kinase activity: 102±2%
[18]; 10 µM
  % residual kinase activity: 147±51%
[19]; 1 µM
  % residual kinase activity: 63±15%
[19]; 10 µM
  % residual kinase activity: 60±10%
[20]; 1 µM
  % residual kinase activity: 71±6%
[20]; 10 µM
  % residual kinase activity: 68±8%
[21]; 1 µM
  % residual kinase activity: 130±34%
[21]; 10 µM
  % residual kinase activity: 63±3%
[22]; 1 µM
  % residual kinase activity: 102±12%
[22]; 10 µM
  % residual kinase activity: 82±16%
[23]; 1 µM
  % residual kinase activity: 94±4%
[23]; 10 µM
  % residual kinase activity: 81±21%
[24]; 1 µM
  % residual kinase activity: 78±19%
[24]; 10 µM
  % residual kinase activity: 87±2%
[25]; 1 µM
  % residual kinase activity: 52±7%
[25]; 10 µM
  % residual kinase activity: 61±16%
[26]; 1 µM
  % residual kinase activity: 106±9%
[26]; 10 µM
  % residual kinase activity: 98±3%
[27]; 1 µM
  % residual kinase activity: 69±2%
[27]; 10 µM
  % residual kinase activity: 75±4%
[28]; 1 µM
  % residual kinase activity: 97±3%
[28]; 10 µM
  % residual kinase activity: 107±2%
[29]; 1 µM
  % residual kinase activity: 101±13%
[29]; 10 µM
  % residual kinase activity: 59±4%
[30]; 1 µM
  % residual kinase activity: 80±11%
[30]; 10 µM
  % residual kinase activity: 50±2%
[31]; 1 µM
  % residual kinase activity: 104±1%
[31]; 10 µM
  % residual kinase activity: 91±4%
[32]; 1 µM
  % residual kinase activity: 76±14%
[32]; 10 µM
  % residual kinase activity: 51±13%
[33]; 1 µM
  % residual kinase activity: 80±11%
[33]; 10 µM
  % residual kinase activity: 122±28%
[34]; 1 µM
  % residual kinase activity: 72±1%
[34]; 10 µM
  % residual kinase activity: 93±21%
[35]; 1 µM
  % residual kinase activity: 78±13%
[35]; 10 µM
  % residual kinase activity: 41±7%
[36]; 1 µM
  % residual kinase activity: 118±4%
[36]; 10 µM
  % residual kinase activity: 120±7%
[37]; 1 µM
  % residual kinase activity: 116±5%
[37]; 10 µM
  % residual kinase activity: 101±3%
[38]; 1 µM
  % residual kinase activity: 104±5%
[38]; 10 µM
  % residual kinase activity: 73±20%
[39]; 1 µM
  % residual kinase activity: 93±12%
[39]; 10 µM
  % residual kinase activity: 93±1%
[40]; 1 µM
  % residual kinase activity: 99±3%
[40]; 10 µM
  % residual kinase activity: 98±9%
[41]; 1 µM
  % residual kinase activity: 107±4%
[41]; 10 µM
  % residual kinase activity: 84±13%
[42]; 1 µM
  % residual kinase activity: 108±9%
[42]; 10 µM
  % residual kinase activity: 91±7%
[43]; 1 µM
  % residual kinase activity: 113±10%
[43]; 10 µM
  % residual kinase activity: 88±28%
[44]; 1 µM
  % residual kinase activity: 120±1%
[44]; 10 µM
  % residual kinase activity: 97±9%
